Legend:
Assay in all cases: scanMAX KINOMEscan (Eurofins)
Assay type in all cases: binding
PFPK5(P.falciparum) = PFPK5(P.falciparum) (Plasmodium falciparum, UniProt P61075); conditions: 1000 nM, read-out: Percent Control
Text: (§1) Supplement cb5c00097_si_002.xlsx, sheet "Table S6 (Eurofins Selectivity)" | column: Percent Control

PDPK1 = PDPK1 (Homo sapiens, UniProt O15530); conditions: 1000 nM, read-out: Percent Control
Text: as §1

SGK3 = SGK3 (Homo sapiens, UniProt Q96BR1); conditions: 1000 nM, read-out: Percent Control
Text: as §1

ASK1 = ASK1 (Homo sapiens, UniProt Q99683); conditions: read-out: Percent Control
Text: as §1

FYN = FYN (Homo sapiens, UniProt P06241); conditions: 1000 nM, read-out: Percent Control
Text: as §1

AURKB = AURKB (Homo sapiens, UniProt Q96GD4); conditions: read-out: Percent Control
Sequence of AURKB (Q96GD4 whole entry): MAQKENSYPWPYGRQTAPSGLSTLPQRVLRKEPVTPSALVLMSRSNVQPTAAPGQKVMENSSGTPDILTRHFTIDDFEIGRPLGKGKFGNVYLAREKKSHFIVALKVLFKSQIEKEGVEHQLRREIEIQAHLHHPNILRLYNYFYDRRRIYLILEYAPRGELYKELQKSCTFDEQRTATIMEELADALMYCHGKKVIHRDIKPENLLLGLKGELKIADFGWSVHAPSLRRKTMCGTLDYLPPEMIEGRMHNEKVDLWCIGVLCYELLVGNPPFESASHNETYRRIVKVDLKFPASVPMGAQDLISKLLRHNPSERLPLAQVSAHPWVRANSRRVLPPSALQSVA
Text: as §1

MEK3 = MEK3 (Homo sapiens, UniProt P46734); conditions: 1000 nM, read-out: Percent Control
Text: as §1

PIM2 = PIM2 (Homo sapiens, UniProt Q9P1W9); conditions: 1000 nM, read-out: Percent Control
Text: as §1

PKN2 = PKN2 (Homo sapiens, UniProt Q16513); conditions: compound concentration 100 nM; Entrez PKN2; read-out: Percent Control
Text: as §1

CDK11 = CDK11 (Homo sapiens, UniProt Q9BWU1); conditions: read-out: Percent Control
Sequence of CDK11 (Q9BWU1 whole entry): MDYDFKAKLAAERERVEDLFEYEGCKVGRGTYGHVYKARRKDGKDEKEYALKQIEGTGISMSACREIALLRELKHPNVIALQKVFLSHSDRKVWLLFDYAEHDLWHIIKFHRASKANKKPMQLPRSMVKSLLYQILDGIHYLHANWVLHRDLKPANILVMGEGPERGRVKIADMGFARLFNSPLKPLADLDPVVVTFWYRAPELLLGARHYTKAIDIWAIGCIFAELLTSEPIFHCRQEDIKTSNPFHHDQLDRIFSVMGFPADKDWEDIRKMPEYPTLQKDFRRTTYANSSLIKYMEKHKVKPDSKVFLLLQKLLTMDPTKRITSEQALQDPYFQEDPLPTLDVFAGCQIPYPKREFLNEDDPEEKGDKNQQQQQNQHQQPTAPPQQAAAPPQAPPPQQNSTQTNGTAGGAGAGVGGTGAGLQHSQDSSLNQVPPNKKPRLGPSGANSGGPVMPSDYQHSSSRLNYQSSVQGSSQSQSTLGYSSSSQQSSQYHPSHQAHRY
Text: as §1

MYLK = MYLK (Homo sapiens, UniProt Q15746); conditions: 1000 nM, read-out: Percent Control
Text: as §1

WEE2 = WEE2 (Homo sapiens, UniProt P0C1S8); conditions: 1000 nM, read-out: Percent Control
Text: as §1

EPHA3 = EPHA3 (Homo sapiens, UniProt P29320); conditions: read-out: Percent Control
Text: as §1

GSK3A = GSK3A (Homo sapiens, UniProt P49840); conditions: 1000 nM, read-out: Percent Control
Text: as §1

[1] = target: RPS6KA5(Kin.Dom.2-C-terminal) (Homo sapiens, UniProt O75582); conditions: compound concentration 100 nM; Entrez RPS6KA5; read-out: Percent Control
Text: as §1

DCAMKL1 = DCAMKL1 (Homo sapiens, UniProt O15075); conditions: read-out: Percent Control
Sequence of DCAMKL1 (O15075 whole entry): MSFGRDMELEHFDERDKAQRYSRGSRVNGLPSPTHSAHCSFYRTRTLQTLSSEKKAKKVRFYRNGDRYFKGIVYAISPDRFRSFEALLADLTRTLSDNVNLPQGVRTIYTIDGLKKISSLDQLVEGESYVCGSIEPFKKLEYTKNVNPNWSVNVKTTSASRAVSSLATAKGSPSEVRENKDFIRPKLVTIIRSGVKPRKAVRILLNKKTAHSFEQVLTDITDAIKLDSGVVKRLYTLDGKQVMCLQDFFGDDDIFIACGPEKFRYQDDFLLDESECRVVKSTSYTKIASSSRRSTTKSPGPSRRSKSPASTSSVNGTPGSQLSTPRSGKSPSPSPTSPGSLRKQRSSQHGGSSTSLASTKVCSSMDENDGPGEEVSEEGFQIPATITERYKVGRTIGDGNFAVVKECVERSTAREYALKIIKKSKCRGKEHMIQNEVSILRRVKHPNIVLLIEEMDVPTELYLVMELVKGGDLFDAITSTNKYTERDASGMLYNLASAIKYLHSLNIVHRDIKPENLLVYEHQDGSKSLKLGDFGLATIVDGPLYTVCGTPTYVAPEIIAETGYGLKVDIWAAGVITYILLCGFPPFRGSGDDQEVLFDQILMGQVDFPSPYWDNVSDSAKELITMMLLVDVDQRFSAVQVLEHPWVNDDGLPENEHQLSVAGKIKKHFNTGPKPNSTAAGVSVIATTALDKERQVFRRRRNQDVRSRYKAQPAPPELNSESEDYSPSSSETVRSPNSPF
Text: as §1

TAK1 = TAK1 (Homo sapiens, UniProt O43318); conditions: 1000 nM, read-out: Percent Control
Text: as §1

DDR1 = DDR1 (Homo sapiens, UniProt Q08345); conditions: read-out: Percent Control
Sequence of DDR1 (Q08345 19-913): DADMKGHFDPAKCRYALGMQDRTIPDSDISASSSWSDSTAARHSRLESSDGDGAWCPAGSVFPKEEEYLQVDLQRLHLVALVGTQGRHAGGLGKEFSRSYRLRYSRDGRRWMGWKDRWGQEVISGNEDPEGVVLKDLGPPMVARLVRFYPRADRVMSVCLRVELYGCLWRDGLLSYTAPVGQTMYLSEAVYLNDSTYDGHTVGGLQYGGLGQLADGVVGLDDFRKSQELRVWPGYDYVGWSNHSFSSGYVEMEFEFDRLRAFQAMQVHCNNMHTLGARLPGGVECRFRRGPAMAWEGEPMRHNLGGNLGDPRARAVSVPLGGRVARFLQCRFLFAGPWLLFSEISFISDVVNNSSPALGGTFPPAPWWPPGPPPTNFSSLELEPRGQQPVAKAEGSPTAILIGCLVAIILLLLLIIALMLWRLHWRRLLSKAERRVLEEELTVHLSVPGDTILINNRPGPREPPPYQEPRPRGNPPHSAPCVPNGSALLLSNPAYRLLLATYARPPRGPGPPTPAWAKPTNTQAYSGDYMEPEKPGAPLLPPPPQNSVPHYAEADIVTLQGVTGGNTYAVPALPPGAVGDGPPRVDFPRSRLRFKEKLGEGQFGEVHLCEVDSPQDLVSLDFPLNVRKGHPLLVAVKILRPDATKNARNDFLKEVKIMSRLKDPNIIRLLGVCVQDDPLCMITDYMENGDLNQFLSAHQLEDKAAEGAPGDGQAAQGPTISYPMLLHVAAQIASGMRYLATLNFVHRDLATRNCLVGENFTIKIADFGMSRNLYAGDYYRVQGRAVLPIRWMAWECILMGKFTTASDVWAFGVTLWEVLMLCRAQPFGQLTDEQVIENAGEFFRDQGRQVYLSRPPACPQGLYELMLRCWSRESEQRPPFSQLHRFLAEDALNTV
Text: as §1

MAP4K2 = MAP4K2 (Homo sapiens, UniProt Q12851); conditions: 1000 nM, read-out: Percent Control
Text: as §1

HUNK = HUNK (Homo sapiens, UniProt P57058); conditions: read-out: Percent Control
Sequence of HUNK (P57058 whole entry): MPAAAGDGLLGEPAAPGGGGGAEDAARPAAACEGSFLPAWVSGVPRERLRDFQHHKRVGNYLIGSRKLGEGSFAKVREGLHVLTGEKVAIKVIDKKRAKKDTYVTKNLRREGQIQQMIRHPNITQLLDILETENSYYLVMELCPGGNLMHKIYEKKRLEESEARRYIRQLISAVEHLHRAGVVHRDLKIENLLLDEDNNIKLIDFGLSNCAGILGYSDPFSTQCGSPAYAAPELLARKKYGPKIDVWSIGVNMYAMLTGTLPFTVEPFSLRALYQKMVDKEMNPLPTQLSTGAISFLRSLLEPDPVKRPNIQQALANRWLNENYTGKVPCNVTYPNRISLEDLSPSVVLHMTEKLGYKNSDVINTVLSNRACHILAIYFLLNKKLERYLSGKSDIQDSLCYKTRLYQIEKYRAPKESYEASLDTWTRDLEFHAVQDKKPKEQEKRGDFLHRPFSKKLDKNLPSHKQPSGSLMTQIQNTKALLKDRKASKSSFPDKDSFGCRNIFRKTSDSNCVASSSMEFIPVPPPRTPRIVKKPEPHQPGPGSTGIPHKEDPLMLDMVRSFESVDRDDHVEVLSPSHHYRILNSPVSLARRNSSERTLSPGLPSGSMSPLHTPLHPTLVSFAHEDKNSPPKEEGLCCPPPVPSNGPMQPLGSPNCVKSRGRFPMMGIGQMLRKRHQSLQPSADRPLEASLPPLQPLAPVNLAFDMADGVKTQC
Text: as §1

TRPM6 = TRPM6 (Homo sapiens, UniProt Q9BX84); conditions: compound concentration 100 nM; Entrez TRPM6; read-out: Percent Control
Text: as §1

PKAC-beta = PKAC-beta (Homo sapiens, UniProt P22694); conditions: 1000 nM, read-out: Percent Control
Text: as §1

MAP4K4 = MAP4K4 (Homo sapiens, UniProt O95819); conditions: 1000 nM, read-out: Percent Control
Text: as §1

EPHA5 = EPHA5 (Homo sapiens, UniProt P54756); conditions: 1000 nM, read-out: Percent Control
Text: as §1

NEK11 = NEK11 (Homo sapiens, UniProt Q8NG66); conditions: 1000 nM, read-out: Percent Control
Text: as §1

ITK = ITK (Homo sapiens, UniProt Q08881); conditions: 1000 nM, read-out: Percent Control
Text: as §1

CHEK1 = CHEK1 (Homo sapiens, UniProt O14757); conditions: read-out: Percent Control
Sequence of CHEK1 (O14757 whole entry): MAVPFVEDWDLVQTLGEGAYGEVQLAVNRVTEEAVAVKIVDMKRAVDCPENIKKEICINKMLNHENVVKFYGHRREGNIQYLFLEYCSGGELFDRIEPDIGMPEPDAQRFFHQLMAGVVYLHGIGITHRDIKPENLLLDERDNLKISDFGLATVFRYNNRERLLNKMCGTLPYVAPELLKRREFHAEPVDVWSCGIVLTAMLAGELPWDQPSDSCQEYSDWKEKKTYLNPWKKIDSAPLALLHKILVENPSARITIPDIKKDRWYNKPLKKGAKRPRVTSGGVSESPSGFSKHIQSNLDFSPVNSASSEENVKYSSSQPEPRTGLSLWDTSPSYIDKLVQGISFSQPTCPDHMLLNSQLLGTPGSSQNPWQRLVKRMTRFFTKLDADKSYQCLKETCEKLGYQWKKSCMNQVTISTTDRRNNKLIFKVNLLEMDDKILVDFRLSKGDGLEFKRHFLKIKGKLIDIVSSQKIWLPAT
Text: as §1

NEK6 = NEK6 (Homo sapiens, UniProt Q9HC98); conditions: compound concentration 100 nM; Entrez NEK6; read-out: Percent Control
Text: as §1

PKN1 = PKN1 (Homo sapiens, UniProt Q16512); conditions: read-out: Percent Control
Sequence of PKN1 (Q16512 whole entry): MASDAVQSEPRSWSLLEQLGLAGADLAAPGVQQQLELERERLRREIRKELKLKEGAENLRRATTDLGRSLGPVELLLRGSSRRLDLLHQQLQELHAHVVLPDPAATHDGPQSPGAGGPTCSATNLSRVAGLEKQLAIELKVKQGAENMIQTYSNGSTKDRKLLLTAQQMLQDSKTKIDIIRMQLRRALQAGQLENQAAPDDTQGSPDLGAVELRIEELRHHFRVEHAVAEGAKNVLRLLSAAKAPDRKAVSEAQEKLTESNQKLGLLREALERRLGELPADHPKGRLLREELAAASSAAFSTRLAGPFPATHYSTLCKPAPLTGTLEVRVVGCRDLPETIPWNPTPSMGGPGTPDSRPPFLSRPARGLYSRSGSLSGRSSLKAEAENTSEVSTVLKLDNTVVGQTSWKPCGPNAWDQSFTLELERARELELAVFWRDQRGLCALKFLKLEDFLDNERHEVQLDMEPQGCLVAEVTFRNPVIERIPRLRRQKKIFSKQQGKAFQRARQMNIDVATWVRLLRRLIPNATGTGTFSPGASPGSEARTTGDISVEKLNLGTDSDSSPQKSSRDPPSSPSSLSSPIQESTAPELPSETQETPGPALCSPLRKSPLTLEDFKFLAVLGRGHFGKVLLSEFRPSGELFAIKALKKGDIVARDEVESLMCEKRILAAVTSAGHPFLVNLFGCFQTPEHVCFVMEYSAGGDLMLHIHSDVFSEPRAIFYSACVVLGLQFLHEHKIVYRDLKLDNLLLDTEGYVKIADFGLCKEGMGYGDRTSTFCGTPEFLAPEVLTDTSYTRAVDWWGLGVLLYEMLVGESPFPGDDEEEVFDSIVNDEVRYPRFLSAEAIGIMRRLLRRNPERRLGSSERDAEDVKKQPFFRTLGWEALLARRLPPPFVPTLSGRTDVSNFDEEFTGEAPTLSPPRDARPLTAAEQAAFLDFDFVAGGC
Text: as §1

TBK1 = TBK1 (Homo sapiens, UniProt Q9UHD2); conditions: 1000 nM, read-out: Percent Control
Text: as §1

ERK2 = ERK2 (Homo sapiens, UniProt P28482); conditions: 1000 nM, read-out: Percent Control
Sequence of ERK2 (P28482 whole entry): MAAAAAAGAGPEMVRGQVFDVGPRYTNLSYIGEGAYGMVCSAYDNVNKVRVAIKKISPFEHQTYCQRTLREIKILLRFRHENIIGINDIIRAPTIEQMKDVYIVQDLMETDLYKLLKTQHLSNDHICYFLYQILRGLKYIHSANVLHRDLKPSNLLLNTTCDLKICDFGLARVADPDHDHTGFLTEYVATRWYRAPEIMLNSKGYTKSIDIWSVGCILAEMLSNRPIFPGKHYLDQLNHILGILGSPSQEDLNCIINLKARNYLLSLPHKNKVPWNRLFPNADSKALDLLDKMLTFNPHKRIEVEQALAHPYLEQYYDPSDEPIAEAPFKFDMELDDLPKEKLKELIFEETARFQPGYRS
Text: as §1

HIPK4 = HIPK4 (Homo sapiens, UniProt Q8NE63); conditions: 1000 nM, read-out: Percent Control
Text: as §1

BRAF = BRAF (Homo sapiens, UniProt P15056); conditions: 1000 nM, read-out: Percent Control
Text: as §1

EIF2AK1 = EIF2AK1 (Homo sapiens, UniProt Q9BQI3); conditions: 1000 nM, read-out: Percent Control
Text: as §1

LATS2 = LATS2 (Homo sapiens, UniProt Q9NRM7); conditions: 1000 nM, read-out: Percent Control
Text: as §1

MYO3A = MYO3A (Homo sapiens, UniProt Q8NEV4); conditions: 1000 nM, read-out: Percent Control
Text: as §1

MARK3 = MARK3 (Homo sapiens, UniProt P27448); conditions: 1000 nM, read-out: Percent Control
Text: as §1

ULK3 = ULK3 (Homo sapiens, UniProt Q6PHR2); conditions: 1000 nM, read-out: Percent Control
Text: as §1

CN1C(=O)[C@@H](N2CCc3c(nn(Cc4ccccc4)c3C(N)=O)C2=O)COc2cc(Cl)ccc21 [Compound 10, (S)-2-benzyl-6-(8-chloro-5-methyl-4-oxo-2,3,4,5-tetrahydrobenzo[b][1,4]oxazepin-3-yl)-7-oxo-4,5,6,7-tetrahydro-2H-pyrazolo[3,4-c]pyridine-3-carboxamide]
remaining binding at 1 µM (PFPK5(P.falciparum)): 66% | remaining binding at 1 µM (PDPK1): 91% | remaining binding at 1 µM (SGK3): 90% | remaining binding at 1 µM (ASK1; 1000 nM): 100% | remaining binding at 0.1 µM (ASK1; compound concentration 100 nM, Entrez MAP3K5): 91% | remaining binding at 1 µM (FYN): 77% | remaining binding at 1 µM (AURKB; 1000 nM): 100% | remaining binding at 0.1 µM (AURKB; compound concentration 100 nM, Entrez AURKB): 100% | remaining binding at 1 µM (MEK3): 97% | remaining binding at 1 µM (PIM2): 91% | remaining binding at 0.1 µM (PKN2): 90% | remaining binding at 1 µM (CDK11; 1000 nM): 100% | remaining binding at 0.1 µM (CDK11; compound concentration 100 nM, Entrez CDK19): 100% | remaining binding at 1 µM (MYLK): 86% | remaining binding at 1 µM (WEE2): 82% | remaining binding at 1 µM (EPHA3; 1000 nM): 100% | remaining binding at 0.1 µM (EPHA3; compound concentration 100 nM, Entrez EPHA3): 77% | remaining binding at 1 µM (GSK3A): 98% | remaining binding at 0.1 µM [1]: 95% | remaining binding at 1 µM (DCAMKL1; 1000 nM): 100% | remaining binding at 0.1 µM (DCAMKL1; compound concentration 100 nM, Entrez DCLK1): 92% | remaining binding at 1 µM (TAK1): 82% | remaining binding at 1 µM (DDR1; 1000 nM): 100% | remaining binding at 0.1 µM (DDR1; compound concentration 100 nM, Entrez DDR1): 77% | remaining binding at 1 µM (MAP4K2): 88% | remaining binding at 1 µM (HUNK; 1000 nM): 100% | remaining binding at 0.1 µM (HUNK; compound concentration 100 nM, Entrez HUNK): 82% | remaining binding at 0.1 µM (TRPM6): 100% | remaining binding at 1 µM (PKAC-beta): 87% | remaining binding at 1 µM (MAP4K4): 94% | remaining binding at 1 µM (EPHA5): 97% | remaining binding at 1 µM (NEK11): 78% | remaining binding at 1 µM (ITK): 89% | remaining binding at 1 µM (CHEK1; 1000 nM): 100% | remaining binding at 0.1 µM (CHEK1; compound concentration 100 nM, Entrez CHEK1): 86% | remaining binding at 0.1 µM (NEK6): 78% | remaining binding at 1 µM (PKN1; 1000 nM): 98% | remaining binding at 0.1 µM (PKN1; compound concentration 100 nM, Entrez PKN1): 86% | remaining binding at 1 µM (TBK1): 94% | remaining binding at 1 µM (ERK2): 95% | remaining binding at 1 µM (HIPK4): 87% | remaining binding at 1 µM (BRAF): 79% | remaining binding at 1 µM (EIF2AK1): 94% | remaining binding at 1 µM (LATS2): 69% | remaining binding at 1 µM (MYO3A): 94% | remaining binding at 1 µM (MARK3): 98% | remaining binding at 1 µM (ULK3): 93%

Reference: PMC12090182, “Repurposing of the RIPK1-Selective Benzo[1,4]oxazepin-4-one Scaffold for the Development of a Type III LIMK1/2 Inhibitor” (ACS Chemical Biology, 2025)
